Article PMC9655818, “Cytoprotective Polyketides from Sponge-Derived Fungus Lopadostoma pouzarii” (Molecules, 2022)

Legend:
[1] = DPPH scavenging assay; conditions: for DPPH Radicals, % of Control: compounds at 100 µM, 30 min, absorbance 520 nm, mean ± SEM
Protocol: The compounds were dissolved in DMSO, and the solutions (120 µL) were dispensed into wells of a 96-well microplate. In all, 30 µL of the DPPH (Sigma-Aldrich, Steinheim, Germany) solution in MeOH (1.5 × 10^−4 M) was added to each well. The concentrations of the compounds in mixture were 10 and 100 µM. Pure DMSO was used as a control. The ascorbic acid was used as a positive control. The mixture was shaken and left to stand for 30 min, and the absorbance of the resulting solution was measured at 520 nm with a microplate reader MultiscanFC (ThermoLabsystems Inc., Beverly, MA, USA). The radical scavenging activity of all compounds at 100 µM was presented as a percent of the DMSO data.

[2] = test system: CoCl2-treated H9c2 cells; test: Cardioprotective activity in CoCl2-mimic hypoxia; assay type: cell-based, rat; conditions: MTT
Protocol: The H9c2 cells were treated with a dH2O-solution of CoCl2 at a concentration of 500 µM for 2 h. Then, compounds at a concentration of 10 µM were added for 46 h. The viability of the H9c2 cells was measured by an MTT assay.

[3] = test system: rat normal cardiomyocytes H9c2; test: Cell viability (MTT) assay, cytotoxic activity toward H9c2 cells; assay type: cell-based; conditions: 48 h
Protocol: (§1) The human cancer PC-3 cells were purchased from ATCC (Manassas, VA, USA). The rat cardiomyocytes H9c2 cells were kindly provided by Prof. Dr. Gunhild von Amsberg from Martini-Klinik Prostate Cancer Center, University Hospital Hamburg-Eppendorf, Hamburg, Germany.
(§2) The PC-3 and H9c2 cells were seeded at concentrations of 5 × 10^3 cell/well and 3 × 10^3 cell/well, respectively, and the experiments were started after 24 h. The compounds at concentrations up to 100 µM were added into the wells for 48 h, and the viability of the cells was measured by an MTT (3-(4,5-dimethylthiazol-2-yl)-2,5-diphenyltetrazolium bromide) assay, which was performed according to the manufacturer’s instructions (Sigma-Aldrich, Munich, Germany). All compounds were diisolved with DMSO so that the final concentration of DMSO in the cell culture was not more than 1%. Moreover, DMSO was used as a control.
(§3) The results were presented as a percent of the control data, and the concentration of the cell viability inhibition on 50% (IC50) was calculated.

[4] = test system: human prostate cancer PC-3 cells; test: Cell viability (MTT) assay, cytotoxic activity toward PC-3 cells; assay type: cell-based; conditions: 48 h; for IC50: Homo sapiens, PC-3 cells; for decrease of PC-3 cell viability: concentration of 100 µM
Protocol: as §1, §2, §3

[5] = test system: rotenone-treated H9c2 cells; test: Cardioprotective activity against rotenone-induced toxicity; assay type: cell-based, rat
Protocol: The H9c2 cells were treated with rotenone (0.1% DMSO solution) at a concentration of 10 µM for 1 h. Then, compounds at a concentration of 10 µM were added for 23 h. The viability of the H9c2 cells was measured by an MTT assay.

SMILES	DPPH Radicals, % of Control [1]	decrease of viability of H9c2 cells by CoCl2 treatment ([2]; CoCl2 500 µM) [%]	IC50 [3] [µM]	IC50 [4] [µM]	decrease of PC-3 cell viability [4]	viability at 10 µM ([5]; Rattus norvegicus, H9c2, read-out: increase of viability of rotenone-treated H9c2 cells) [%]	decrease of the amount of DPPH radical ([1]; concentration of 100 µM) [%]	viability at 10 µM ([2]; Rattus norvegicus, H9c2, compound at 10 µM for 46 h after CoCl2 500 µM for 2 h, read-out: increase of viability of CoCl2-treated H9c2 cells) [%]	decrease of viability of H9c2 cells by rotenone treatment ([5]; rotenone 10 µM, MTT) [%]
O=C1O[C@H]([C@@H](O)CO)C(O)=C1O [Ascorbic acid, ascorbic acid, reference compound]	10.5 ± 3.2 % of Control								
[Cl-].[Cl-].[Co+2] [CoCl2, cobalt chloride (II), reference compound]		54.1							
COC1=C(OC)[C@@H](O)[C@](C)(O)[C@@H](C)C1=O [Compound 1, lopouzanone A]	93.8 ± 0.5 % of Control		> 100	> 100	27–32%				
COC1=C(OC)C(O)C(C)(O)C(C)C1=O (centres unmarked) [Compound 2, lopouzanone B]	100.2 ± 1.0 % of Control		> 100	> 100	27–32%				
COC1=C(OC)C(=O)C(C)C(C)C1=O (centres unmarked) [Compound 3, gliorosein]	86.1 ± 1.8 % of Control		> 100	58.9 ± 1.5		16.6	13.9	23.5	
C[C@@H]1C/C=C/C(=O)C/C=C/[C@H](O)CC(=O)O1 [Compound 4, balticolid]	98.6 ± 3.4 % of Control		> 100	38.9 ± 1.9					
C[C@@H]1C/C=C/[C@@H](O)C/C=C/[C@@H](O)CC(=O)O1 [Compound 5, dendrodolide G]	98.9 ± 1.4 % of Control		> 100	> 100	27–32%				
C/C=C/C=C/C=C/[C@@H]1C[C@@H](O)[C@H](O)[C@H](O)[C@@H]1CO [Compound 8, dendrodochol B]	99.4 ± 3.3 % of Control		> 100	> 100	27–32%				
C/C=C/C=C/C=C/[C@@H]1C[C@@H](OC(C)=O)[C@H](O)[C@H](O)[C@@H]1CO [Compound 9, 1-O-acetyl dendrodochol B]	102.7 ± 1.8 % of Control		> 100	> 100	27–32%				
C=C(C)[C@H]1Cc2c(ccc3c2O[C@@H]2COc4cc(OC)c(OC)cc4[C@@H]2C3=O)O1 [rotenone, reference compound]									32.1
